Active and inactive are the calls of the source. The calls are words filed in the database; no cut-off is given here.
Tests used:
[1] = biological target: T1, DNA topoisomerase 1 (Homo sapiens) (UniProt P11387); assay: Inhibition of topoisomerase 1 (unknown origin) assessed as relaxation of supercoiled plasmid pBR322 DNA at 10 uM incubated for 45 mins by ethidium bromide staining based agarose gel electrophoresis
T1 sequence (whole entry): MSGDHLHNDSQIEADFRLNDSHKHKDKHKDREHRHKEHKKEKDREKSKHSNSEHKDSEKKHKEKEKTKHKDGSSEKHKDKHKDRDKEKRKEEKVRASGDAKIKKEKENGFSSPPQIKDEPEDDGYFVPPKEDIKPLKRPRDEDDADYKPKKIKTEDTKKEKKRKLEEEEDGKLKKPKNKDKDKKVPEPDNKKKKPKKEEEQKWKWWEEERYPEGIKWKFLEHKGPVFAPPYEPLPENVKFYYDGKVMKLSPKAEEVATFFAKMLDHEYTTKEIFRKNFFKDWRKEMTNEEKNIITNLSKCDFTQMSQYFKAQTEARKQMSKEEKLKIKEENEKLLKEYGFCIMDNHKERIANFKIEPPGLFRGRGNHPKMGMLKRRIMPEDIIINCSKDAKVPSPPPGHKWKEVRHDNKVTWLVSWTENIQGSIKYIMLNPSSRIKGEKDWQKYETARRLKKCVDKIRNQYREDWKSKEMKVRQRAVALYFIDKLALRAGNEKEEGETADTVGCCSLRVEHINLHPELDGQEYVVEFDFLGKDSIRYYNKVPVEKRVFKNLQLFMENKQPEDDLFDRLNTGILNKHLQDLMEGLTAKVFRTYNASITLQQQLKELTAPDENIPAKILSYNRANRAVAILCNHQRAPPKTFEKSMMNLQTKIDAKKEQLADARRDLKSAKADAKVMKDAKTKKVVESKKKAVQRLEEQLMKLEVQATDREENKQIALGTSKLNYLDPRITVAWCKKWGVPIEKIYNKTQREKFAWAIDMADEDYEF

HT-29 [2] = assay: Antitumor activity against human HT-29 cells assessed as inhibition of cell proliferation incubated for 72 hrs by MTT assay; format: functional, cell-based; settings: HT-29, 72 h
RKO = assay: Antitumor activity against human RKO cells assessed as inhibition of cell proliferation incubated for 72 hrs by MTT assay; format: functional, cell-based
LoVo = assay: Antitumor activity against human LoVo cells assessed as inhibition of cell proliferation incubated for 72 hrs by MTT assay; format: functional, cell-based
HCT-116 = assay: Antitumor activity against human HCT-116 cells assessed as inhibition of cell proliferation incubated for 72 hrs by MTT assay; format: functional, cell-based; settings: HCT-116, 72 h
SW480 = assay: Antitumor activity against human SW480 cells assessed as inhibition of cell proliferation incubated for 72 hrs by MTT assay; format: functional, cell-based; settings: SW480, 72 h
[3] = biological target: Prostaglandin G/H synthase 2 (Homo sapiens) (UniProt P35354); assay: Inhibition of COX-2 (unknown origin) at 3 uM
[4] = biological target: Prostaglandin G/H synthase 2 (Homo sapiens) (UniProt P35354); assay: Inhibition of COX-2 (unknown origin) at 30 uM
[5] = biological target: T1, DNA topoisomerase 1 (Homo sapiens); assay: Inhibition of topoisomerase 1 (unknown origin) assessed as relaxation of supercoiled plasmid pBR322 DNA at 1 uM incubated for 45 mins by ethidium bromide staining based agarose gel electrophoresis
[6] = Water solubility of compound by HPLC analysis; format: physicochemical
HT-29 [7] = assay: Antitumor activity against human HT-29 cells xenografted in BALB/c mouse assessed as inhibition of tumor growth at 30 mg/kg, ip bid and measured after 14 days by vernier caliper method; format: functional; settings: HT-29, 336 h, time 14 day, read-out: TGI
HT-29 [8] = assay: Antitumor activity against human HT-29 cells xenografted in BALB/c mouse assessed as reduction of tumor weight at 30 mg/kg, ip bid and measured after 14 days; format: functional, organism-based; settings: time 14.0 day
HT-29 [9] = assay: Antitumor activity against human HT-29 cells xenografted in BALB/c mouse assessed as inhibition of tumor microvessel density by measuring CD31-index at 30 mg/kg, ip bid for 14 days by immunohistochemical analysis; format: functional; settings: time 14 day

Prostaglandin G/H synthase 2 (Homo sapiens), sequence (P35354 whole entry, looked up): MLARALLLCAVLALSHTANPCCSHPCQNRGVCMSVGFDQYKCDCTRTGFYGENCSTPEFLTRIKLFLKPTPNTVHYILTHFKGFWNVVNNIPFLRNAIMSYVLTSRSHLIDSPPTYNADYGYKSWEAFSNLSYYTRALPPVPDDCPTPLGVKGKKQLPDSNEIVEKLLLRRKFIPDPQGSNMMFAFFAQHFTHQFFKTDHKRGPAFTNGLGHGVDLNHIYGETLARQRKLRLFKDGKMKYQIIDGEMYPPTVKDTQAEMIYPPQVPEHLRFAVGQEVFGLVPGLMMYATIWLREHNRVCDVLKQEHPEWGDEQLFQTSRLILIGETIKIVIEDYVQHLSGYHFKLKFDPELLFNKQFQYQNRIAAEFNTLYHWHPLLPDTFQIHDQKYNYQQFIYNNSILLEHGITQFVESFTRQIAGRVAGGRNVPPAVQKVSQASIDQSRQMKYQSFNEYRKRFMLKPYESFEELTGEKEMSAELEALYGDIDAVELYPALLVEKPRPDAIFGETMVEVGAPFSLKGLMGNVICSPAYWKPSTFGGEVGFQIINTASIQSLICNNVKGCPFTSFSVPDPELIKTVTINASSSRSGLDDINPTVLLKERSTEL

SMILES: Cc1c(Cl)cccc1Nc1ccccc1C(=O)Nc1ccc(N2CCN(C(=O)OC(C)(C)C)CC2)cc1
- inhibition [1]: 20.4%
- IC50 (HT-29 [2]): 11.9 µM
- IC50 (RKO): > 30 µM
- IC50 (LoVo): > 30 µM
- IC50 (HCT-116): > 30 µM
- IC50 (SW480): > 30 µM
- inhibition [3]: 18.9%
- inhibition [4]: 41.9%

SMILES: Cc1c(Cl)cccc1Nc1ccccc1C(=O)Nc1ccc(N2CCOCC2)cc1
- inhibition [1]: 14.5%
- IC50 (HT-29 [2]): 6.4 µM
- IC50 (RKO): > 30 µM
- IC50 (LoVo): > 30 µM
- IC50 (HCT-116): > 30 µM
- IC50 (SW480): > 30 µM
- inhibition [3]: 41.6%
- inhibition [4]: 42.9%

SMILES: Cc1c(Cl)cccc1Nc1ccccc1C(=O)Nc1ccc(NCCO)cc1
- inhibition [1]: 40.9%
- IC50 (HT-29 [2]): 12.9 µM
- IC50 (RKO): 29 µM
- IC50 (LoVo): > 30 µM
- IC50 (HCT-116): 13.9 µM
- IC50 (SW480): > 30 µM
- inhibition [3]: 69%
- inhibition [4]: 100%

SMILES: Cc1c(Cl)cccc1Nc1ccccc1C(=O)Nc1ccc(N2CCN(c3ccccc3)CC2)cc1
- inhibition [1]: 13.9%
- inhibition [5]: 12.6%
- IC50 (HT-29 [2]): > 30 µM
- IC50 (RKO): > 30 µM
- IC50 (LoVo): > 30 µM
- IC50 (HCT-116): > 30 µM
- IC50 (SW480): > 30 µM
- inhibition [3]: 27.6%
- inhibition [4]: 37.8%

SMILES: COCCOc1ccc(NC(=O)c2ccccc2Nc2cccc(Cl)c2C)cc1
- inhibition [1]: 29.3%
- inhibition [5]: 25%
- IC50 (HT-29 [2]): 7.48 µM
- IC50 (RKO): 15.4 µM
- IC50 (LoVo): 14.7 µM
- IC50 (HCT-116): > 30 µM
- IC50 (SW480): > 30 µM
- inhibition [3]: 31.7%
- inhibition [4]: 36.5%

SMILES: CCCN1CCN(c2ccc(NC(=O)c3ccccc3Nc3cccc(Cl)c3C)cc2)CC1
- inhibition [1]: 63.1%
- IC50 (HT-29 [2]): 6.35 µM
- IC50 (RKO): 10.1 µM
- IC50 (LoVo): 13.5 µM
- IC50 (HCT-116): 13.4 µM
- IC50 (SW480): 16.9 µM
- inhibition [3]: 36.5%
- inhibition [4]: 81%

SMILES: Cc1c(Cl)cccc1Nc1ccccc1C(=O)Nc1ccc(N2CCN(C)CC2)cc1
- inhibition [1]: 67.8%
- inhibition [5]: 25.4%
- IC50 (HT-29 [2]): 2.09 µM
- IC50 (RKO): 6.61 µM
- IC50 (LoVo): 5 µM
- IC50 (HCT-116): 7.58 µM
- IC50 (SW480): 11.3 µM
- inhibition [3]: 54.4%
- inhibition [4]: 100%

SMILES: CCCCN1CCN(c2ccc(NC(=O)c3ccccc3Nc3cccc(Cl)c3C)cc2)CC1
- inhibition [1]: 53.2%
- inhibition [5]: 27.6%
- IC50 (HT-29 [2]): 9.83 µM
- IC50 (RKO): 15.2 µM
- IC50 (LoVo): > 30 µM
- IC50 (HCT-116): 13.2 µM
- IC50 (SW480): 18.3 µM
- inhibition [3]: 42.2%
- inhibition [4]: 58.3%

SMILES: COCC(=O)Oc1ccc(NC(=O)c2ccccc2Nc2cccc(Cl)c2C)cc1
- inhibition [1]: 16.6%
- IC50 (HT-29 [2]): 18.7 µM
- IC50 (RKO): 14 µM
- IC50 (LoVo): > 30 µM
- IC50 (HCT-116): 12.6 µM
- IC50 (SW480): > 30 µM
- inhibition [3]: 25.2%
- inhibition [4]: 47.7%

SMILES: Cc1c(Cl)cccc1Nc1ccccc1C(=O)Nc1ccc(N2CCN(S(C)(=O)=O)CC2)cc1
- inhibition [1]: 19.7%
- inhibition [5]: 19.5%
- IC50 (HT-29 [2]): > 30 µM
- IC50 (RKO): > 30 µM
- IC50 (LoVo): > 30 µM
- IC50 (HCT-116): > 30 µM
- IC50 (SW480): > 30 µM
- inhibition [3]: 24.5%
- inhibition [4]: 34.2%

SMILES: Cc1c(Cl)cccc1Nc1ccccc1C(=O)Nc1ccc(S(N)(=O)=O)cc1
- inhibition [1]: 24.4%
- inhibition [5]: 19.8%
- IC50 (HT-29 [2]): 28.8 µM
- IC50 (RKO): 13.7 µM
- IC50 (LoVo): 13.3 µM
- IC50 (HCT-116): 7.7 µM
- IC50 (SW480): 14.7 µM
- inhibition [3]: 42%
- inhibition [4]: 71.3%

SMILES: Cc1c(Cl)cccc1Nc1ccccc1C(=O)Nc1ccc(C(N)=O)cc1
- inhibition [1]: 19.6%
- IC50 (HT-29 [2]): 26.1 µM
- IC50 (RKO): > 30 µM
- IC50 (LoVo): 22.8 µM
- IC50 (HCT-116): 17.5 µM
- IC50 (SW480): > 30 µM
- inhibition [4]: 3.53%

SMILES: Cc1c(Cl)cccc1Nc1ccccc1C(=O)Nc1ccc(OCCN)cc1
- inhibition [1]: 63.8%
- inhibition [5]: 41.3%
- IC50 (HT-29 [2]): 12 µM
- IC50 (RKO): 9.22 µM
- IC50 (LoVo): 12.9 µM
- IC50 (HCT-116): 6.41 µM
- IC50 (SW480): 25.3 µM
- inhibition [3]: 28.7%
- inhibition [4]: 43.2%

SMILES: O=c1[nH]cc(F)c(=O)[nH]1 [FLUOROURACIL]
- IC50 (HT-29 [2]): 12.2 µM
- IC50 (LoVo): 8.35 µM
- IC50 (HCT-116): 7.77 µM
- IC50 (SW480): > 30 µM

SMILES: Cc1c(Cl)cccc1Nc1ccccc1C(=O)Nc1ccc(OCCO)cc1
- inhibition [1]: 46.2%
- IC50 (HT-29 [2]): 6.83 µM
- IC50 (RKO): 16.7 µM
- IC50 (LoVo): 24.7 µM
- IC50 (HCT-116): 9.65 µM
- IC50 (SW480): > 30 µM
- inhibition [3]: 22.6%
- inhibition [4]: 47.9%

SMILES: Cc1c(Cl)cccc1Nc1ccccc1C(=O)Nc1ccc(OCCNC(=O)OC(C)(C)C)cc1
- inhibition [1]: 18.2%
- IC50 (HT-29 [2]): 1.88 µM
- IC50 (RKO): 0.75 µM
- IC50 (LoVo): 28.9 µM
- IC50 (HCT-116): > 30 µM
- IC50 (SW480): > 30 µM
- solubility [6]: < 1 µg/mL
- inhibition in vivo at 30 mg/kg (HT-29 [7]): 37.9%
- Activity (HT-29 [8]): Active
- Inhibition_index (HT-29 [9]): 11.67
- inhibition [4]: 28%

SMILES: Cc1c(Cl)cccc1Nc1ccccc1C(=O)Nc1ccc(OC(=O)CO)cc1
- inhibition [1]: 45.1%
- IC50 (HT-29 [2]): 13.6 µM
- IC50 (RKO): 14.1 µM
- IC50 (LoVo): > 30 µM
- IC50 (HCT-116): 13.5 µM
- IC50 (SW480): > 30 µM
- inhibition [3]: 24.9%
- inhibition [4]: 97.9%

SMILES: Cc1c(Cl)cccc1Nc1ccccc1C(=O)Nc1ccc(N2CCN(C(C)C)CC2)cc1
- inhibition [1]: 54.6%
- inhibition [5]: 37.5%
- IC50 (HT-29 [2]): 2.97 µM
- IC50 (RKO): 10.8 µM
- IC50 (LoVo): 8.29 µM
- IC50 (HCT-116): 12 µM
- IC50 (SW480): 10.3 µM
- inhibition [3]: 30.1%
- inhibition [4]: 83.7%

SMILES: CC(=O)N1CCN(c2ccc(NC(=O)c3ccccc3Nc3cccc(Cl)c3C)cc2)CC1
- inhibition [1]: 29%
- IC50 (HT-29 [2]): > 30 µM
- IC50 (RKO): > 30 µM
- IC50 (LoVo): > 30 µM
- IC50 (HCT-116): > 30 µM
- IC50 (SW480): > 30 µM
- inhibition [3]: 37.6%
- inhibition [4]: 60.3%

SMILES: CCN1CCN(c2ccc(NC(=O)c3ccccc3Nc3cccc(Cl)c3C)cc2)CC1
- inhibition [1]: 71.9%
- IC50 (HT-29 [2]): 2.99 µM
- IC50 (RKO): 10 µM
- IC50 (LoVo): 9.51 µM
- IC50 (HCT-116): 11.5 µM
- IC50 (SW480): 15.8 µM
- inhibition [3]: 37.1%
- inhibition [4]: 100%
